Reference: patent publication US8952024B2, “Herbicidal pyrimidone derivatives” (E I du Pont de Nemours and Company, priority 2009, dated 2015)

What was measured:
Test in all cases: Test B pre-/postemergence plant response
Type in all cases: in vivo
[1] = test system: morningglory (Ipomoea coccinea)
Method in brief: (§1)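 Each species received compound formulated in non-phytotoxic solvent with surfactant, either at planting into a loam and sand blend or as a foliar spray once plants reached 2 to 18 cm in peat-based medium. Plants stayed in the greenhouse 13 to 15 days before visual evaluation against controls, scored 0 (no effect) to 100 (complete control).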

[2] = test system: lambsquarters (Chenopodium album)
Method in brief: as §1

[3] = test system: large crabgrass (Digitaria sanguinalis)
Method in brief: as §1

[4] = test system: woolly cupgrass (Eriochloa villosa)
Method in brief: as §1

[5] = test system: Italian ryegrass (Lolium multiflorum)
Method in brief: as §1

[6] = test system: downy bromegrass (Bromus tectorum)
Method in brief: as §1

[7] = test system: blackgrass (Alopecurus myosuroides)
Method in brief: as §1

[8] = test system: green foxtail (Setaria viridis)
Method in brief: as §1

[9] = test system: yellow nutsedge (Cyperus esculentus)
Method in brief: as §1

[10] = test system: bermudagrass (Cynodon dactylon)
Method in brief: as §1

[11] = test system: corn (Zea mays)
Method in brief: as §1

[12] = test system: Surinam grass (Brachiaria decumbens)
Method in brief: as §1

[13] = test system: giant foxtail (Setaria faberii)
Method in brief: as §1

[14] = Postemergence, 31 g ai/ha, 0 to 100 scale (0 no effect, 100 complete control)
[15] = Postemergence, 62 g ai/ha, scale 0 to 100 (0 no effect, 100 complete control)
[16] = Postemergence, 125 g ai/ha, scale 0 (no effect) to 100 (complete control), 13 to 15 days
[17] = Postemergence, 250 g ai/ha, scale 0 to 100 (0 no effect, 100 complete control), 13 to 15 days
[18] = Preemergence, 31 g ai/ha, scale 0 to 100 (0 no effect, 100 complete control)
[19] = Preemergence, 62 g ai/ha, scale 0 to 100 (0 no effect, 100 complete control)
[20] = Preemergence, 125 g ai/ha, scale 0 to 100, 0 no effect, 100 complete control
[21] = Preemergence, 250 g ai/ha, 0 to 100 scale

With `CCc1ccccc1-n1c(-c2ccccc2)ncc(C(=O)C2=C(O)CCCC2=O)c1=O` [Compound 255] the “Plant response rating, Morningglory” value [1, 14] was 75, the “Plant response rating, Morningglory” value [1, 15] was 85 and the “Plant response rating, Morningglory” value [1, 16] was 85. For the same compound, the “Plant response rating, Morningglory” value [1, 17] was 100, the “Plant response rating, Morningglory” value [1, 18] was 40 and the “Plant response rating, Morningglory” value [1, 19] was 55. The “Plant response rating, Morningglory” value [1, 20] was 65, the “Morningglory plant response rating” value [1, 21] was 90 and the “Plant response rating, Lambsquarters” value [2, 14] was 90. For the same compound, the “Plant response rating, Lambsquarters” value [2, 15] was 95, the “Plant response rating, Lambsquarters” value [2, 16] was 98 and the “Plant response rating, Lambsquarters” value [2, 17] was 100. The “Plant response rating, Lambsquarters” value [2, 18] was 98, the “Plant response rating, Lambsquarters” value [2, 19] was 100 and the “Plant response rating, Lambsquarters” value [2, 20] was 100. For the same compound, the “Lambsquarters plant response rating” value [2, 21] was 100, the “Plant response rating, Crabgrass, Large” value [3, 14] was 85 and the “Plant response rating, Crabgrass, Large” value [3, 15] was 85. For the same compound, the “Plant response rating, Crabgrass, Large” value [3, 16] was 90, the “Plant response rating, Crabgrass, Large” value [3, 17] was 95 and the “Plant response rating, Crabgrass, Large” value [3, 18] was 80. For the same compound, the “Plant response rating, Crabgrass, Large” value [3, 19] was 95, the “Plant response rating, Crabgrass, Large” value [3, 20] was 100 and the “Crabgrass, Large plant response rating” value [3, 21] was 100. For the same compound, the “Plant response rating, Cupgrass, Woolly” value [4, 14] was 85, the “Plant response rating, Cupgrass, Woolly” value [4, 15] was 95 and the “Plant response rating, Cupgrass, Woolly” value [4, 16] was 95. For the same compound, the “Plant response rating, Cupgrass, Woolly” value [4, 17] was 98, the “Plant response rating, Cupgrass, Woolly” value [4, 18] was 0 and the “Plant response rating, Cupgrass, Woolly” value [4, 19] was 10. The “Plant response rating, Cupgrass, Woolly” value [4, 20] was 75, the “Cupgrass, Woolly plant response rating” value [4, 21] was 90 and the “Plant response rating, Ryegrass, Italian” value [5, 14] was 10. The “Plant response rating, Ryegrass, Italian” value [5, 15] was 30, the “Plant response rating, Ryegrass, Italian” value [5, 16] was 30 and the “Plant response rating, Ryegrass, Italian” value [5, 17] was 80. For the same compound, the “Plant response rating, Ryegrass, Italian” value [5, 18] was 0, the “Plant response rating, Ryegrass, Italian” value [5, 19] was 0 and the “Plant response rating, Ryegrass, Italian” value [5, 20] was 10. The “Ryegrass, Italian plant response rating” value [5, 21] was 30, the “Plant response rating, Bromegrass, Downy” value [6, 14] was 50 and the “Plant response rating, Bromegrass, Downy” value [6, 15] was 60. For the same compound, the “Plant response rating, Bromegrass, Downy” value [6, 16] was 80, the “Plant response rating, Bromegrass, Downy” value [6, 17] was 85 and the “Plant response rating, Bromegrass, Downy” value [6, 18] was 0. The “Plant response rating, Bromegrass, Downy” value [6, 19] was 0, the “Plant response rating, Bromegrass, Downy” value [6, 20] was 0 and the “Bromegrass, Downy plant response rating” value [6, 21] was 40. For the same compound, the “Plant response rating, Blackgrass” value [7, 14] was 5, the “Plant response rating, Blackgrass” value [7, 15] was 5 and the “Plant response rating, Blackgrass” value [7, 16] was 10. The “Plant response rating, Blackgrass” value [7, 17] was 60, the “Plant response rating, Blackgrass” value [7, 18] was 0 and the “Plant response rating, Blackgrass” value [7, 19] was 20. For the same compound, the “Plant response rating, Blackgrass” value [7, 20] was 40, the “Blackgrass plant response rating” value [7, 21] was 60 and the “Plant response rating, Foxtail, Green” value [8, 14] was 85. For the same compound, the “Plant response rating, Foxtail, Green” value [8, 15] was 90, the “Plant response rating, Foxtail, Green” value [8, 16] was 90 and the “Plant response rating, Foxtail, Green” value [8, 17] was 90. For the same compound, the “Plant response rating, Foxtail, Green” value [8, 18] was 0, the “Plant response rating, Foxtail, Green” value [8, 19] was 80 and the “Plant response rating, Foxtail, Green” value [8, 20] was 80. For the same compound, the “Foxtail, Green plant response rating” value [8, 21] was 100, the “Plant response rating, Nutsedge, Yellow” value [9, 14] was 10 and the “Plant response rating, Nutsedge, Yellow” value [9, 15] was 15. The “Plant response rating, Nutsedge, Yellow” value [9, 16] was 15, the “Plant response rating, Nutsedge, Yellow” value [9, 17] was 60 and the “Plant response rating, Nutsedge, Yellow” value [9, 18] was 10. The “Plant response rating, Nutsedge, Yellow” value [9, 19] was 25, the “Plant response rating, Nutsedge, Yellow” value [9, 20] was 40 and the “Nutsedge, Yellow plant response rating” value [9, 21] was 90. For the same compound, the “Plant response rating, Bermudagrass” value [10, 14] was 90, the “Plant response rating, Bermudagrass” value [10, 15] was 95 and the “Plant response rating, Bermudagrass” value [10, 16] was 95. The “Plant response rating, Bermudagrass” value [10, 17] was 100, the “Plant response rating, Bermudagrass” value [10, 18] was 100 and the “Plant response rating, Bermudagrass” value [10, 19] was 100. The “Plant response rating, Bermudagrass” value [10, 20] was 100, the “Bermudagrass plant response rating” value ([10]; Preemergence, 250 g ai/ha, 0 to 100 scale, 0 no effect, 100 complete control) was 100 and the “Plant response rating, Corn” value [11, 14] was 60. The “Plant response rating, Corn” value [11, 15] was 75, the “Plant response rating, Corn” value [11, 16] was 85 and the “Plant response rating, Corn” value [11, 17] was 85. The “Plant response rating, Corn” value [11, 18] was 0, the “Plant response rating, Corn” value [11, 19] was 0 and the “Plant response rating, Corn” value [11, 20] was 0. For the same compound, the “Corn plant response rating” value [11, 21] was 0, the “Plant response rating, Surinam Grass” value [12, 14] was 80 and the “Plant response rating, Surinam Grass” value [12, 15] was 80. For the same compound, the “Plant response rating, Surinam Grass” value [12, 16] was 90, the “Plant response rating, Surinam Grass” value [12, 17] was 90 and the “Plant response rating, Surinam Grass” value [12, 18] was 65. The “Plant response rating, Surinam Grass” value [12, 19] was 85, the “Plant response rating, Surinam Grass” value [12, 20] was 95 and the “Surinam Grass plant response rating” value [12, 21] was 100. The “Plant response rating, Foxtail, Giant” value [13, 14] was 95, the “Plant response rating, Foxtail, Giant” value [13, 15] was 98 and the “Plant response rating, Foxtail, Giant” value [13, 16] was 98. For the same compound, the “Plant response rating, Foxtail, Giant” value [13, 17] was 100, the “Plant response rating, Foxtail, Giant” value [13, 18] was 15 and the “Plant response rating, Foxtail, Giant” value [13, 19] was 45. For the same compound, the “Plant response rating, Foxtail, Giant” value [13, 20] was 55 and the “Foxtail, Giant plant response rating” value [13, 21] was 98.
